One assay has as its system SF-539 (CNS). Briefly: NCI-60 cytotoxicity assay. The assay is classed as cell-based. The conditions noted are these: Homo sapiens; SF-539 CNS; 48 h, sulforhodamine B; read-out: Comparative Cytotoxicity GI50, CNS SF-539. The protocol: (§1) The antiproliferative activities of the indenoisquinoline compounds are determined in the NCI-60 cancer cell lines of the National Cancer Institute Developmental Therapeutics Program (NCI-DTP). […] Cancer cells are incubated with the test compounds at five concentrations ranging from 100 μM to 10 nM for 48 h. After the treated cancer cells are stained with sulforhodamine B dye, the percentage growth is plotted as a function of the common logarithm of the tested compound concentration. […] The approximate average of GI50 values across the entire panel of NCI-60 cancer cell lines for each compound is recorded as the MGM value.
(§2) NCI-60 Cytotoxicity Assay. Compounds were submitted to the National Cancer Institute Developmental Therapeutic Program to determine their growth-inhibitory potentials in NCI-60 cell lines. All compounds satisfied the pre-screening proceeded into the 5-dose cell viability assay, in which cells were treated for 48 h at 5 dosages ranging from 100 μM to 10 nM.

The next assay deals with NCI-60 cancer cell lines. Kind of assay: NCI-60 cytotoxicity assay, MGM. To be noted: Homo sapiens; entire panel of NCI-60 cancer cell lines; read-out: MGM (approximate average of GI50 values across the NCI-60 panel). The class given is cell-based. As for the experimental part: as §1, §2
In the next assay the test system is UACC-62 (Melanoma). Kind of assay: NCI-60 cytotoxicity assay. The class given is cell-based, human. The conditions noted are these: Homo sapiens; UACC-62 melanoma; 48 h, sulforhodamine B; read-out: Comparative Cytotoxicity GI50, Melanoma UACC-62. As for the experimental part:
as §1, §2

The subject of a further assay is MCF7 (Breast). Briefly: NCI-60 cytotoxicity assay. The assay is classed as cell-based, human. The conditions noted are these: Homo sapiens; MCF7 breast; 48 h, sulforhodamine B; read-out: Comparative Cytotoxicity GI50, Breast MCE7. The protocol: as §1, §2
The next assay concerns HOP-62 (Lung). Kind of assay: NCI-60 cytotoxicity assay. The assay is classed as cell-based, human. The conditions noted are these: Homo sapiens; HOP-62 lung; 48 h, sulforhodamine B; read-out: Comparative Cytotoxicity GI50, Lung HOP-62. As for the experimental part: as §1, §2
The subject of another assay is DU-145 (Prostate). Briefly: NCI-60 cytotoxicity assay. To be noted: Homo sapiens; DU-145 prostate; 48 h, sulforhodamine B; read-out: Comparative Cytotoxicity GI50, Prostate DU-145. The class given is cell-based, human. The protocol:
as §1, §2

A further assay has as its system OVCAR-3 (Ovarian). Briefly: NCI-60 cytotoxicity assay. The class given is cell-based, human. To be noted: Homo sapiens; OVCAR-3 ovarian; 48 h, sulforhodamine B; read-out: Comparative Cytotoxicity GI50, Ovarian OVCAR-3. The protocol:
as §1, §2

For another assay, the system named is SN12C (Renal). Kind of assay: NCI-60 cytotoxicity assay. The class given is cell-based, human. To be noted: Homo sapiens; SN12C renal; 48 h, sulforhodamine B; read-out: Comparative Cytotoxicity GI50, Renal SN12C. As for the experimental part: as §1, §2
The next assay relates to HCT-116 (Colon). Briefly: NCI-60 cytotoxicity assay. The class given is cell-based, human. To be noted: Homo sapiens; HCT-116 colon; 48 h, sulforhodamine B; read-out: Comparative Cytotoxicity GI50, Colon HCT-116. As for the experimental part: as §1, §2

SMILES strings stand for the structures.

As a reminder, the GI50 is the concentration giving 50% growth inhibition. Consider `COc1cc2c3c(n(CCCN4CCC[C@H]4C(N)=O)c(=O)c2cc1OC)-c1cc2c(cc1C3=O)OCO2` [A5], for which the GI50 with SF-539 (CNS) turned out to be 30 nM; with NCI-60 cancer cell lines it was 125 nM; in the assay with UACC-62 (Melanoma), 21 nM; with MCF7 (Breast), 10 nM; in the assay with HOP-62 (Lung) it was 31 nM; in the assay on DU-145 (Prostate) it was 38 nM. Besides, the GI50 with OVCAR-3 (Ovarian) was determined as 160 nM; with SN12C (Renal) it was 42 nM; with HCT-116 (Colon), 35 nM.
Turning to `COc1cnc2c(c1)C(=O)c1c-2n(CCCNCCO)c(=O)c2cc(OC)c(OC)cc12` [A12], the GI50 in the assay on SF-539 (CNS) stood at 490 nM; in the assay with NCI-60 cancer cell lines it was 2090 nM; in the assay on UACC-62 (Melanoma), 1170 nM; in the assay with MCF7 (Breast), 170 nM; with HOP-62 (Lung), 350 nM; with DU-145 (Prostate), 730 nM. Besides, the GI50 with OVCAR-3 (Ovarian) turned out to be 4520 nM; in the assay on SN12C (Renal) it was 3280 nM; in the assay with HCT-116 (Colon), 1150 nM.
With `CCNCCCn1c2c(c3cc(OC)c(OC)cc3c1=O)C(=O)c1cc(OC)cnc1-2` [A9], the GI50 in the assay with SF-539 (CNS) was found to be 800 nM; in the assay with NCI-60 cancer cell lines, 1540 nM; in the assay with UACC-62 (Melanoma), 700 nM; in the assay on MCF7 (Breast), 160 nM; in the assay on HOP-62 (Lung) it was 320 nM; in the assay with DU-145 (Prostate), 2160 nM. In addition, the GI50 in the assay with OVCAR-3 (Ovarian) is 3600 nM; in the assay with SN12C (Renal), 1440 nM; in the assay on HCT-116 (Colon), 420 nM.
On to `COc1cnc2c(c1)C(=O)c1c-2n(CCCNC(C)C)c(=O)c2cc(OC)c(OC)cc12` [A11], for which the GI50 is 1360 nM with SF-539 (CNS); 2340 nM with NCI-60 cancer cell lines; 2430 nM in the assay with UACC-62 (Melanoma); 220 nM in the assay with MCF7 (Breast); 700 nM in the assay on HOP-62 (Lung); 1270 nM with DU-145 (Prostate). The results for the GI50 with OVCAR-3 (Ovarian), in the assay on SN12C (Renal) and with HCT-116 (Colon) were 8990 nM, 4190 nM and 1020 nM, respectively.
`COc1cc2c3c(n(CCCNC4CCC4)c(=O)c2cc1OC)-c1cc2c(cc1C3=O)OCO2` [A2]: the GI50 in the assay on SF-539 (CNS) amounted to 1050 nM; in the assay with NCI-60 cancer cell lines, 870 nM; in the assay with UACC-62 (Melanoma), 1400 nM; in the assay on MCF7 (Breast), 57 nM; with HOP-62 (Lung), 220 nM; with DU-145 (Prostate), 790 nM. Also, the GI50 is 1380 nM with OVCAR-3 (Ovarian), 1440 nM in the assay on SN12C (Renal) and 900 nM with HCT-116 (Colon).
For `COc1cc2c3c(n(CCCN4CCCCC4)c(=O)c2cc1OC)-c1cc2c(cc1C3=O)OCO2` [A6], the GI50 came to 1460 nM in the assay on SF-539 (CNS); 1050 nM with NCI-60 cancer cell lines; 1380 nM with UACC-62 (Melanoma); 140 nM in the assay with MCF7 (Breast); 1050 nM with HOP-62 (Lung); 1370 nM in the assay on DU-145 (Prostate). The GI50 came to 1630 nM in the assay on OVCAR-3 (Ovarian), 1610 nM with SN12C (Renal) and 420 nM in the assay on HCT-116 (Colon).
Take `COc1cnc2c(c1)C(=O)c1c-2n(CCCn2ccnc2)c(=O)c2cc(OC)c(OC)cc12` [A8]: the GI50 came out at 53 nM with SF-539 (CNS); 240 nM in the assay with NCI-60 cancer cell lines; 40 nM with UACC-62 (Melanoma); 30 nM in the assay on MCF7 (Breast); 42 nM in the assay with HOP-62 (Lung); 61 nM in the assay with DU-145 (Prostate). For the same compound, the GI50 in the assay with OVCAR-3 (Ovarian) worked out at 600 nM; with SN12C (Renal), 56 nM; in the assay with HCT-116 (Colon), 110 nM.
Take `COc1cc2c3c(n(CCCN4CCCC4)c(=O)c2cc1OC)-c1cc2c(cc1C3=O)OCO2` [A4]: the GI50 with SF-539 (CNS) was 1330 nM; with NCI-60 cancer cell lines, 1100 nM; in the assay on UACC-62 (Melanoma) it was 1480 nM; in the assay on MCF7 (Breast), 380 nM; with HOP-62 (Lung) it was 800 nM; in the assay with DU-145 (Prostate), 1310 nM. Also, the GI50 in the assay with OVCAR-3 (Ovarian) is 1500 nM; in the assay on SN12C (Renal) it was 1640 nM; in the assay with HCT-116 (Colon), 1140 nM.
With `COc1cc2c3c(n(CCCNC4CCCCC4)c(=O)c2cc1OC)-c1cc2c(cc1C3=O)OCO2` [A7], the 50% growth inhibitory concentration (GI50) with SF-539 (CNS) worked out at 7740 nM; in the assay on NCI-60 cancer cell lines it was 6020 nM; in the assay with UACC-62 (Melanoma), 28400 nM; in the assay on MCF7 (Breast) it was 1060 nM; with HOP-62 (Lung), 15900 nM; in the assay with DU-145 (Prostate), 1840 nM. Besides, the GI50 with OVCAR-3 (Ovarian) turned out to be 11000 nM; with SN12C (Renal), 18600 nM; in the assay on HCT-116 (Colon), 1320 nM.
Consider `COc1cnc2c(c1)C(=O)c1c-2n(CCCNCC2CC2)c(=O)c2cc(OC)c(OC)cc12` [A10], for which the 50% growth inhibitory concentration (GI50) with SF-539 (CNS) amounted to 1000 nM; in the assay with NCI-60 cancer cell lines it was 860 nM; with UACC-62 (Melanoma), 840 nM; in the assay with MCF7 (Breast), 160 nM; in the assay with HOP-62 (Lung), 670 nM; in the assay on DU-145 (Prostate), 960 nM. Besides, the GI50 in the assay on OVCAR-3 (Ovarian) stood at 1820 nM; in the assay with SN12C (Renal), 440 nM; with HCT-116 (Colon), 400 nM.

The values are drawn from patent US20240287089A1, “Preparation and Uses of 7-Azaindenoisoquinolines” (Purdue Research Foundation, priority 0001, published 2024).
